Test results reported in patent US5808049A, “Stereospecific 5-fu esters and methods for preparing same” (Director-General of Agency of Industrial Science and …, priority 1994, dated 1998).

Experiments:
[1] = test system: human pancreas cancer cells MIA PaCa-2; test: Stereoselective hydrolysis of anticancer agent esters with human pancreas cancer cells MIA PaCa-2; settings: MIA PaCa-2; 12 hours at 30° C., pH 7.5
Method: (§1) Each of the reaction mixtures was prepared by dissolving 1 mg of the ester in 10 μl of ethanol, and by mixing with it, 90 μl of a 0.1M phosphoric acid buffer (having a pH of 7.5), plus one of the following: 100 μl of a cell suspension, or 20 or 30 μl of whole blood, or 50 μl of tissue homogenate. […] The cells numbers in 100 μl of the cell suspension used in the reaction were as follows: rat liver cancer cells Anr4=7×10^6 ; rat pancreas cancer cells ARIP=8×10^6 ; rat sarcoma cells XC=5×10^6 ; human histiocytic leukemia cells U937=1×10^7 ; human pancreas cancer cells MIA PaCa-2=8×10^6 ; and human intestinum crassum cancer cells Colo 320=1×10^7. Fifty μl of the tissue homogenate corresponded to 20 mg of wet tissue.
(§2) Each of these reaction mixtures was stirred for 12 hours at 30° C. by a magnetic stirrer; then 1.5 μl of 2N HCl was added, to bring the pH to about 2.5, and extraction with 1 ml of ethyl acetate in the presence of a saturated sodium chloride was carried out twice. The ethyl acetate layers of each sample were combined, the volume was adjusted to precisely 2 ml, and it was divided into 1.7 ml and 0.3 ml. The former was concentrated under reduced pressure, and the contained produced carboxylic acid was isolated by thin-layer preparative chromatography. A solution of diazomethane in ether was added to it, to methylate it, and the absolute configuration and the optical purity of the methylated product were determined by high-performance liquid chromatography using a chiral column. The latter 0.3 ml was directly methylated, and then it was concentrated and adjusted to 0.3 ml again, and the methyl ester of the contained produced carboxylic acid was determined quantitatively by gas chromatography, from which the hydrolyzed rate was determined. The column used in the high-performance liquid chromatography was a Chiralcell OJ or OD column (trade name; 4.6×250 mm) manufactured by Daicel; the elution was carried out by using a 10% 2-propanol/hexane mixture; and the flow velocity was 1 or 0.75 ml/min. The column used in the gas chromatography was a capillary column of OV-1 (0.25 mm×25 m), and the analysis temperature was 120° to 180° C.

in vitro [2] = settings: human, colo 320 cells, pH 7.5
Method: as §1, §2

in vitro [3] = settings: rat, anr4 cells, pH 7.5
Method: as §1, §2

[4] = test system: human intestinum crassum cancer cells Colo 320; test: Stereoselective hydrolysis of anticancer agent esters with human intestinum crassum cancer cells Colo 320; settings: Colo320; 12 hours at 30° C., pH 7.5
Method: as §1, §2

in vitro [5] = settings: human, mia paca-2 cells, pH 7.5
Method: as §1, §2

in vitro [6] = settings: rat, xc cells, pH 7.5
Method: as §1, §2

in vitro [7] = settings: rat, blood, pH 7.5
Method: as §1, §2

[8] = test system: human histiocytic leukemia cells U937; test: Stereoselective hydrolysis of anticancer agent esters with human histiocytic leukemia cells U937; settings: U937; 12 hours at 30° C., pH 7.5
Method: as §1, §2

[9] = Stereoselective hydrolysis of anticancer agent esters with normal rat liver homogenate; settings: 12 hours at 30° C., pH 7.5
rat sarcoma cells XC = test: Stereoselective hydrolysis of anticancer agent esters with rat sarcoma cells XC; settings: XC; 12 hours at 30° C., pH 7.5
Method: as §1, §2

[10] = Stereoselective hydrolysis of anticancer agent esters with normal rat muscle homogenate; settings: 12 hours at 30° C., pH 7.5
[11] = test system: rat liver cancer cells Anr4; test: Stereoselective hydrolysis of anticancer agent esters with rat liver cancer cells Anr4; settings: Anr4; 12 hours at 30° C., pH 7.5
Method: as §1, §2

[12] = Stereoselective hydrolysis of anticancer agent esters with rat whole blood; settings: pH 7.5; for enantiomer excess of the carboxylic acid produced by the hydrolysis: rat whole blood, 12 hours at 30° C.; for metabolised at 12 h: rat, whole blood
Method: as §1, §2

in vitro [13] = settings: human, blood, pH 7.5
Method: as §1, §2

in vitro [14] = settings: rat, arip cells, pH 7.5
Method: as §1, §2

in vitro [15] = settings: human, u937 cells, pH 7.5
Method: as §1, §2

[16] = Stereoselective hydrolysis of anticancer agent esters with normal rat pancreas homogenate; settings: 12 hours at 30° C., pH 7.5
Method: as §1, §2

[17] = test system: rat pancreas cancer cells ARIP; test: Stereoselective hydrolysis of anticancer agent esters with rat pancreas cancer cells ARIP; settings: ARIP; 12 hours at 30° C., pH 7.5
Method: as §1, §2

[18] = Stereoselective hydrolysis of anticancer agent esters with human whole blood; settings: pH 7.5; for enantiomer excess of the carboxylic acid produced by the hydrolysis: human whole blood, 12 hours at 30° C.
Method: as §1, §2

[19] = test system: rat liver cancer cells Anr4; test: Anticancer effect (suppression of multiplication) on rat liver cancer cells Anr4; assay type: cell-based; settings: for multiplication of Anr4 cells suppressed to % of the control: same way as in Example 2 (Example 3); for multiplication of Anr4 cells suppressed to % of the control / number of cells, % for the value of the control: 2880 min; for suppression of multiplication of Anr4 cells, comparison of enantiomers: Ib: at 1 μM to 0.1 μM, Ic: at 10 μM; for number of cells, % for the value of the control: 6 hours exposure, then 42 hours in fresh medium
Method: The anticancer effect of levo-rotatory or dextro-rotatory 4-bis(2-chloroethyl)aminophenyl 2-methoxy-2-phenylacetate (Ib) on rat liver cancer cells Anr4 was tested. Anr4 cells were suspended, in an amount of cells number of 1×10^6 per 1 ml, in William's E medium containing 10% of fetal bovine serum, and 0.1 ml of the suspension was distributed to each well of a 24-well multiplate. Further, 1.385 ml of the above medium was added to each well. They were cultured for 4 hours at 37° C. in a CO2 incubator, and then 15 μl of pure ethanol or an ethanol solution containing (R)-(-)-Ib or (S)-(+)-Ib obtained in Synthetic. Example 4, having a concentration of 10 mM, 1 mM, 0.1 mM, 0.01 mM, or 0.001 mM, was added to the medium in each well, and they were mixed well.
After they were cultured for 6 hours in the above incubator, the medium was removed by suction, and 1.5 ml of fresh medium was added. After culturing was continued for 42 hours, the number of cells in each well was counted by a Coulter counter. The results, in terms of % for the value of the control (the well added pure ethanol), were 9%, 12%, 16%, 55%, and 95% for the concentrations of 100 μM, 10 μM, 1 μM, 0.1 μM, and 0.01 μM of (R)-(-)-Ib in the medium, respectively. For the concentrations of 100 μM, 10 μM, 1 μM, 0.1 μM, and 0.01 μM of (S)-(+)-Ib in the medium, the results were 9%, 18%, 30%, 83%, and 95%, respectively.
The anticancer effect of the optically active substances of Ic obtained in Synthetic Example 5 on Anr4 cells was tested in the same way as in Example 2. As a result, at 10 μM, (R)-(+)-Ic suppressed the multiplication of Anr4 cells to 14% of the control, and (S)-(-)-Ic suppressed the multiplication of Anr4 cells to 25% of the control.

[20] = Stereoselective hydrolysis of anticancer agent esters with rat sarcoma cells XC; settings: rat, xc cells, pH 7.5
Method: as §1, §2

[21] = Stereoselective hydrolysis of anticancer agent esters with rat liver cancer cells Anr4; settings: rat, anr4 cells, pH 7.5
Method: as §1, §2

[22] = Stereoselective hydrolysis of anticancer agent esters with rat pancreas cancer cells ARIP; settings: rat, arip cells, pH 7.5
Method: as §1, §2

Row | Compound | metabolised at 12 h (in vitro [3]) | metabolised at 12 h (in vitro [6]) | metabolised at 12 h (in vitro [7]) | enantiomer excess of the carboxylic acid produced by the hydrolysis [8] | enantiomer excess of the carboxylic acid produced by the hydrolysis [9] | enantiomer excess of the carboxylic acid produced by the hydrolysis (rat sarcoma cells XC) | enantiomer excess of the carboxylic acid produced by the hydrolysis [10] | enantiomer excess of the carboxylic acid produced by the hydrolysis [11] | enantiomer excess of the carboxylic acid produced by the hydrolysis [12] | metabolised at 12 h (in vitro [14]) | enantiomer excess of the carboxylic acid produced by the hydrolysis [16] | enantiomer excess of the carboxylic acid produced by the hydrolysis [17] | enantiomer excess of the carboxylic acid produced by the hydrolysis [18] | other results
1 | CC(C(=O)Oc1ccc(N(CCCl)CCCl)cc1)c1ccccc1 (racemic) [Ia, (±)-4-bis(2-chloroethyl)aminophenyl 2-phenylpropionate] | 20.9% | 6.3% | 5.8% | 72.3 % e.e. | 15.7 % e.e. | 18.6 % e.e. | 1.8 % e.e. | 68.9 % e.e. | 9.4 % e.e. | 10.2% | 1.0 % e.e. | 42.8 % e.e. | 9.1 % e.e. | enantiomer excess of the carboxylic acid produced by the hydrolysis [1]: 87.1 % e.e.; metabolised at 12 h (in vitro [2]): 3%; enantiomer excess of the carboxylic acid produced by the hydrolysis [4]: 68.9 % e.e.; metabolised at 12 h (in vitro [5]): 6%; metabolised at 12 h (in vitro [13]): 2.4%; metabolised at 12 h (in vitro [15]): 5.2%
2 | COC(C(=O)Oc1ccc(N(CCCl)CCCl)cc1)c1ccccc1 (racemic) [Ib, (±)-4-bis(2-chloroethyl)aminophenyl 2-methoxy-2-phenylacetate] | 14% | 23.9% | 55.2% |  | 33.2 % e.e. | 69.9 % e.e. | 46.0 % e.e. | 91.3 % e.e. | 20.4 % e.e. | 55.2% | 8.4 % e.e. | 26.8 % e.e. |  | 
3 | O=C(Oc1ccc(N(CCCl)CCCl)cc1)C(Cc1ccccc1)NC(=O)C(F)(F)F (racemic) [Ic, (±)-4-bis(2-chloroethyl)aminophenyl 2-trifluoroacetamido-3-phenylpropionate] | 0.6% | 10.6% | 18.2% | > 99 % e.e. | 93.2 % e.e. | 77.9 % e.e. | 72.4 % e.e. | 94.9 % e.e. | 18.3 % e.e. | 14.6% | > 99 % e.e. | 83.0 % e.e. | 23.7 % e.e. | enantiomer excess of the carboxylic acid produced by the hydrolysis [1]: 2.6 % e.e.; metabolised at 12 h (in vitro [2]): 2.4%; enantiomer excess of the carboxylic acid produced by the hydrolysis [4]: 35.9 % e.e.; metabolised at 12 h (in vitro [5]): 7.2%; metabolised at 12 h (in vitro [13]): 8%; metabolised at 12 h (in vitro [15]): 9.6%
4 | O=C(Oc1ccc(N(CCCl)CCCl)cc1)[C@@H](Cc1ccccc1)NC(=O)C(F)(F)F [(R)-(+)-Ic, 4-bis(2-chloroethyl)aminophenyl 2-trifluoroacetamido-3-phenylpropionate] |  |  |  |  |  |  |  |  |  |  |  |  |  | multiplication of Anr4 cells suppressed to % of the control ([19]; 10 μM): 14%; suppression of multiplication of Anr4 cells, comparison of enantiomers [19]: stronger cell multiplication-suppressing effect than (S)-(-)-Ic
5 | CO[C@@H](C(=O)Oc1ccc(N(CCCl)CCCl)cc1)c1ccccc1 [(R)-(-)-Ib, 4-bis(2-chloroethyl)aminophenyl 2-methoxy-2-phenylacetate] |  |  |  |  |  |  |  |  |  |  |  |  |  | number of cells, % for the value of the control ([19]; 0.01 μM): 95%; number of cells, % for the value of the control ([19]; 0.1 μM): 55%; number of cells, % for the value of the control ([19]; 1 μM): 16%; number of cells, % for the value of the control ([19]; 10 μM): 12%; number of cells, % for the value of the control ([19]; 100 μM): 9%; suppression of multiplication of Anr4 cells, comparison of enantiomers [19]: suppressed the multiplication of Anr4 cells more strongly than dextro-rotatory (S)-(+)-Ib did
6 | CO[C@H](C(=O)Oc1ccc(N(CCCl)CCCl)cc1)c1ccccc1 [(S)-(+)-Ib, 4-bis(2-chloroethyl)aminophenyl 2-methoxy-2-phenylacetate] |  |  |  |  |  |  |  |  |  |  |  |  |  | number of cells, % for the value of the control ([19]; 0.01 μM): 95%; number of cells, % for the value of the control ([19]; 0.1 μM): 83%; number of cells, % for the value of the control ([19]; 1 μM): 30%; number of cells, % for the value of the control ([19]; 10 μM): 18%; number of cells, % for the value of the control ([19]; 100 μM): 9%
7 | O=C(Oc1ccc(N(CCCl)CCCl)cc1)[C@H](Cc1ccccc1)NC(=O)C(F)(F)F [(S)-(-)-Ic, 4-bis(2-chloroethyl)aminophenyl 2-trifluoroacetamido-3-phenylpropionate] |  |  |  |  |  |  |  |  |  |  |  |  |  | multiplication of Anr4 cells suppressed to % of the control ([19]; 10 μM): 25%
8 | CC(C(=O)OC[C@H]1O[C@@H](n2cc(F)c(=O)[nH]c2=O)[C@H](O)[C@@H]1O)c1ccccc1 (stereo partly drawn) [IIa, 5'-(RS)-(2-phenylpropionyl)-5-fluorouridine] |  |  |  | 38.2 % e.e. | 85.6 % e.e. | 82.1 % e.e. | 61.7 % e.e. | 81.6 % e.e. | 53.7 % e.e. |  | 36.9 % e.e. | 91.3 % e.e. | 12.5 % e.e. | metabolised at 12 h [20]: 16.8%; metabolised at 12 h [21]: 26.3%; metabolised at 12 h [12]: 6.3%; metabolised at 12 h [22]: 25.2%; metabolised at 12 h ([18]; human, whole blood): 5.3%
9 | COC(C(=O)OC[C@H]1O[C@@H](n2cc(F)c(=O)[nH]c2=O)[C@H](O)[C@@H]1O)c1ccccc1 (stereo partly drawn) [IIb, 5'-(RS)-(2-methoxy-2-phenylacetyl)-5-fluorouridine] |  |  |  |  | 6.0 % e.e. | 81.5 % e.e. | 18.5 % e.e. | 81.1 % e.e. | 55.0 % e.e. |  | 42.5 % e.e. | 84.1 % e.e. |  | metabolised at 12 h [20]: 23%; metabolised at 12 h [21]: 23.7%; metabolised at 12 h [12]: 14.8%; metabolised at 12 h [22]: 27.7%
